In ChEMBL document CHEMBL3045223, “Synthesis, nematicidal and antimicrobial properties of Bis-[4-methoxy-3-[3-(4-fluorophenyl)-6-(4-methylphenyl)-2(aryl)-tetrahydro-2H-pyrazolo[3,4-d]thiazol-5-yl]phenyl]methanes” (2009):
Values after ≈ are worked out from the molar mass of the structure shown. Active and inactive are the calls of the source. The rule behind the calls is not given here.

Tests used:
Type in all cases: functional
[1] = test system: Trichophyton mentagrophytes; assay: Antifungal activity against Trichophyton mentagrophytes IFO 40996 assessed as growth inhibition at 37 degC for 48 hr
Trichophyton rubrum [2] = assay: Antifungal activity against Trichophyton rubrum IFO 9185 assessed as growth inhibition at 37 degC for 48 hr
Aspergillus fumigatus [3] = assay: Antifungal activity against Aspergillus fumigatus HIC 6094 assessed as growth inhibition at 37 degC for 48 hr
Candida albicans [4] = assay: Antifungal activity against Candida albicans ATCC 10231 assessed as growth inhibition at 37 degC for 48 hr; conditions: ATCC 10231, 48 h
[5] = test system: Trichophyton mentagrophytes; assay: Antifungal activity against Trichophyton mentagrophytes IFO 40996 assessed as growth inhibition at 300 ug/disc at 37 degC for 48 hr; conditions: for zone of inhibition at 300 µg/disc: IFO 40996, 48 h, read-out: IZ
Trichophyton rubrum [6] = assay: Antifungal activity against Trichophyton rubrum IFO 9185 assessed as growth inhibition at 300 ug/disk at 37 degC for 48 hr; conditions: IFO 9185, 48 h, read-out: IZ
Aspergillus fumigatus [7] = assay: Antifungal activity against Aspergillus fumigatus HIC 6094 assessed as growth inhibition at 300 ug/disc at 37 degC for 48 hr; conditions: for zone of inhibition at 300 µg/disc: HIC 6094, 48 h, read-out: IZ
Candida albicans [8] = assay: Antifungal activity against Candida albicans ATCC 10231 assessed as growth inhibition at 300 ug/disk at 37 degC for 48 hr; conditions: for zone of inhibition at 300 µg/disc: ATCC 10231, 48 h, read-out: IZ
[9] = test system: Chromobacterium violaceum; assay: Antibacterial activity against Chromobacterium violaceum MTCC 2656 assessed as growth arrest at 37 degC for 24 hr; conditions: MTCC 2656, 24 h
Klebsiella aerogenes [10] = assay: Antibacterial activity against Enterobacter aerogenes MTCC 39 assessed as growth arrest at 37 degC for 24 hr; conditions: MTCC 39, 24 h
Pseudomonas aeruginosa [11] = assay: Antibacterial activity against Pseudomonas aeruginosa MTCC 741 assessed as growth arrest at 37 degC for 24 hr; conditions: MTCC 741, 24 h
Staphylococcus aureus [12] = assay: Antibacterial activity against Staphylococcus aureus MTCC 96 assessed as growth arrest at 37 degC for 24 hr; conditions: MTCC 96, 24 h
[13] = test system: Lysinibacillus sphaericus; assay: Antibacterial activity against Lysinibacillus sphaericus MTCC 11 assessed as growth arrest at 37 degC for 24 hr; conditions: MTCC 11, 24 h
Bacillus subtilis [14] = assay: Antibacterial activity against Bacillus subtilis MTCC 441 assessed as growth arrest at 37 degC for 24 hr; conditions: MTCC 441, 24 h
[15] = test system: Chromobacterium violaceum; assay: Antibacterial activity against Chromobacterium violaceum MTCC 2656 assessed as inhibition zones at 300 ug/disk at 37 degC for 24 hr; conditions: MTCC 2656, 24 h, read-out: IZ
Klebsiella aerogenes [16] = assay: Antibacterial activity against Enterobacter aerogenes MTCC 39 assessed as inhibition zones at 300 ug/disk at 37 degC for 24 hr; conditions: MTCC 39, 24 h, read-out: IZ
Pseudomonas aeruginosa [17] = assay: Antibacterial activity against Pseudomonas aeruginosa MTCC 741 assessed as inhibition zones at 300 ug/disk at 37 degC for 24 hr; conditions: MTCC 741, 24 h, read-out: IZ
Staphylococcus aureus [18] = assay: Antibacterial activity against Staphylococcus aureus MTCC 96 assessed as inhibition zones at 300 ug/disc at 37 degC for 24 hr; conditions: MTCC 96, 24 h, read-out: IZ
[19] = test system: Lysinibacillus sphaericus; assay: Antibacterial activity against Lysinibacillus sphaericus MTCC 11 assessed as inhibition zones at 300 ug/disk at 37 degC for 24 hr; conditions: MTCC 11, 24 h, read-out: IZ
Bacillus subtilis [20] = assay: Antibacterial activity against Bacillus subtilis MTCC 441 assessed as inhibition zones at 300 ug/disk at 37 degC for 24 hr; conditions: MTCC 441, 24 h, read-out: IZ
Caenorhabditis elegans = assay: Nematicidal activity against Caenorhabditis elegans assessed as immobility; conditions: read-out: LD50 (the source's name)
[21] = test system: Ditylenchus myceliophagus; assay: Nematicidal activity against Ditylenchus myceliophagus assessed as immobility; conditions: read-out: LD50 (the source's name)

Row | Compound | MBC (Candida albicans [4]) [µg/mL] | MIC (Candida albicans [4]) [µg/mL] | zone of inhibition at 300 µg/disc (Trichophyton rubrum [6]) [mm] | MBC [9] [µg/mL] | MIC [9] [µg/mL] | MBC (Klebsiella aerogenes [10]) [µg/mL] | MIC (Klebsiella aerogenes [10]) [µg/mL] | MBC (Pseudomonas aeruginosa [11]) [µg/mL] | MIC (Pseudomonas aeruginosa [11]) [µg/mL] | MBC (Staphylococcus aureus [12]) [µg/mL] | MIC (Staphylococcus aureus [12]) [µg/mL] | MBC [13] [µg/mL] | MIC [13] [µg/mL] | MBC (Bacillus subtilis [14]) [µg/mL] | MIC (Bacillus subtilis [14]) [µg/mL] | zone of inhibition at 300 µg/disc [15] [mm] | zone of inhibition at 300 µg/disc (Klebsiella aerogenes [16]) [mm] | zone of inhibition at 300 µg/disc (Pseudomonas aeruginosa [17]) [mm] | zone of inhibition at 300 µg/disc (Staphylococcus aureus [18]) [mm] | zone of inhibition at 300 µg/disc [19] [mm] | also measured
1 | COc1ccc(Cc2ccc(OC)c(C3SC4C(=NN(Cc5ccccc5)C4c4ccc(F)cc4)N3c3ccc(Cl)cc3)c2)cc1C1SC2C(=NN(Cc3ccccc3)C2c2ccc(F)cc2)N1c1ccc(Cl)cc1 (stereo not given) | 6.25 (≈ 5.83 µM) | 3.12 (≈ 2.91 µM) | 14 | 6.25 (≈ 5.83 µM) | 6.25 (≈ 5.83 µM) | 12.5 (≈ 11.7 µM) | 6.25 (≈ 5.83 µM) | 50 (≈ 46.6 µM) | 12.5 (≈ 11.7 µM) | 25 (≈ 23.3 µM) | 6.25 (≈ 5.83 µM) | 50 (≈ 46.6 µM) | 6.25 (≈ 5.83 µM) | 12.5 (≈ 11.7 µM) | 6.25 (≈ 5.83 µM) | 18 | 23 | 18 | 30 | 23 | MBC ([1]; IFO 40996, 48 h): 25 µg/mL (≈ 23.3 µM); MIC ([1]; IFO 40996, 48 h): 12.5 µg/mL (≈ 11.7 µM); MBC (Trichophyton rubrum [2]; IFO 9185, 48 h): 12.5 µg/mL (≈ 11.7 µM); MIC (Trichophyton rubrum [2]; IFO 9185, 48 h): 6.25 µg/mL (≈ 5.83 µM); MBC (Aspergillus fumigatus [3]; HIC 6094, 48 h): 12.5 µg/mL (≈ 11.7 µM); MIC (Aspergillus fumigatus [3]; HIC 6094, 48 h): 6.25 µg/mL (≈ 5.83 µM); zone of inhibition at 300 µg/disc [5]: 16 mm; zone of inhibition at 300 µg/disc (Aspergillus fumigatus [7]): 17 mm; zone of inhibition at 300 µg/disc (Candida albicans [8]): 21 mm; zone of inhibition at 300 µg/disc (Bacillus subtilis [20]): 23 mm; LC50 (Caenorhabditis elegans): 200 µg/mL (≈ 187 µM); LC50 [21]: 180 µg/mL (≈ 168 µM)
2 | COc1ccc(Cc2ccc(OC)c(C3SC4C(=NN(C)C4c4ccc(F)cc4)N3c3ccc(C)cc3)c2)cc1C1SC2C(=NN(C)C2c2ccc(F)cc2)N1c1ccc(C)cc1 (stereo not given) | 3.12 (≈ 3.55 µM) | 3.12 (≈ 3.55 µM) | 20 | 12.5 (≈ 14.2 µM) | 6.25 (≈ 7.11 µM) | 12.5 (≈ 14.2 µM) | 6.25 (≈ 7.11 µM) | 12.5 (≈ 14.2 µM) | 12.5 (≈ 14.2 µM) | 25 (≈ 28.4 µM) | 12.5 (≈ 14.2 µM) | 25.5 (≈ 29 µM) | 12.5 (≈ 14.2 µM) | 50 (≈ 56.9 µM) | 6.25 (≈ 7.11 µM) | 18 | 20 | 14 | 25 | 13 | MBC ([1]; IFO 40996, 48 h): 12.5 µg/mL (≈ 14.2 µM); MIC ([1]; IFO 40996, 48 h): 6.25 µg/mL (≈ 7.11 µM); MBC (Trichophyton rubrum [2]; IFO 9185, 48 h): 6.25 µg/mL (≈ 7.11 µM); MIC (Trichophyton rubrum [2]; IFO 9185, 48 h): 3.12 µg/mL (≈ 3.55 µM); MBC (Aspergillus fumigatus [3]; HIC 6094, 48 h): 6.25 µg/mL (≈ 7.11 µM); MIC (Aspergillus fumigatus [3]; HIC 6094, 48 h): 3.12 µg/mL (≈ 3.55 µM); zone of inhibition at 300 µg/disc [5]: 18 mm; zone of inhibition at 300 µg/disc (Aspergillus fumigatus [7]): 20 mm; zone of inhibition at 300 µg/disc (Candida albicans [8]): 20 mm; zone of inhibition at 300 µg/disc (Bacillus subtilis [20]): 13 mm; LC50 (Caenorhabditis elegans): 200 µg/mL (≈ 228 µM); LC50 [21]: 160 µg/mL (≈ 182 µM)
3 | COc1ccc(Cc2ccc(OC)c(C3SC4C(=NN(Cc5ccccc5)C4c4ccc(F)cc4)N3c3ccc([N+](=O)[O-])cc3)c2)cc1C1SC2C(=NN(Cc3ccccc3)C2c2ccc(F)cc2)N1c1ccc([N+](=O)[O-])cc1 (stereo not given) | 25 (≈ 22.9 µM) | 12.5 (≈ 11.4 µM) | 11 | 12.5 (≈ 11.4 µM) | 6.25 (≈ 5.72 µM) | 25 (≈ 22.9 µM) | 12.5 (≈ 11.4 µM) | 50 (≈ 45.7 µM) | 12.5 (≈ 11.4 µM) | 50 (≈ 45.7 µM) | 12.5 (≈ 11.4 µM) | 50 (≈ 45.7 µM) | 12.5 (≈ 11.4 µM) | 12.5 (≈ 11.4 µM) | 6.25 (≈ 5.72 µM) | 13 | 19 | 10 | 19 | 21 | MBC [1]: inactive; MIC [1]: inactive; MBC (Trichophyton rubrum [2]): inactive; MIC (Trichophyton rubrum [2]): inactive; MBC (Aspergillus fumigatus [3]): inactive; MIC (Aspergillus fumigatus [3]): inactive; zone of inhibition at 300 µg/disc [5]: 13 mm; zone of inhibition at 300 µg/disc (Aspergillus fumigatus [7]): 16 mm; zone of inhibition at 300 µg/disc (Candida albicans [8]): 19 mm; zone of inhibition at 300 µg/disc (Bacillus subtilis [20]): 15 mm; LC50 (Caenorhabditis elegans): 190 µg/mL (≈ 174 µM); LC50 [21]: 190 µg/mL (≈ 174 µM)
4 | COc1ccc(Cc2ccc(OC)c(C3SC4C(=NN(c5ccc(Cl)cc5)C4c4ccc(F)cc4)N3c3ccc(C)cc3)c2)cc1C1SC2C(=NN(c3ccc(Cl)cc3)C2c2ccc(F)cc2)N1c1ccc(C)cc1 (stereo not given) | 25 (≈ 23.3 µM) | 12.5 (≈ 11.7 µM) | 11 | 25 (≈ 23.3 µM) | 12.5 (≈ 11.7 µM) | 50 (≈ 46.6 µM) | 12.5 (≈ 11.7 µM) | 25 (≈ 23.3 µM) | 6.25 (≈ 5.83 µM) | 25 (≈ 23.3 µM) | 12.5 (≈ 11.7 µM) | 25 (≈ 23.3 µM) | 12.5 (≈ 11.7 µM) | 25 (≈ 23.3 µM) | 12.5 (≈ 11.7 µM) | 21 | 18 | 11 | 29 | 17 | MBC ([1]; IFO 40996, 48 h): 12.5 µg/mL (≈ 11.7 µM); MIC ([1]; IFO 40996, 48 h): 6.25 µg/mL (≈ 5.83 µM); MBC (Trichophyton rubrum [2]; IFO 9185, 48 h): 12.5 µg/mL (≈ 11.7 µM); MIC (Trichophyton rubrum [2]; IFO 9185, 48 h): 6.25 µg/mL (≈ 5.83 µM); MBC (Aspergillus fumigatus [3]; HIC 6094, 48 h): 12.5 µg/mL (≈ 11.7 µM); MIC (Aspergillus fumigatus [3]; HIC 6094, 48 h): 6.25 µg/mL (≈ 5.83 µM); zone of inhibition at 300 µg/disc [5]: 10 mm; zone of inhibition at 300 µg/disc (Aspergillus fumigatus [7]): 11 mm; zone of inhibition at 300 µg/disc (Candida albicans [8]): 13 mm; zone of inhibition at 300 µg/disc (Bacillus subtilis [20]): 17 mm; LC50 (Caenorhabditis elegans): 360 µg/mL (≈ 336 µM); LC50 [21]: 240 µg/mL (≈ 224 µM)
5 | COc1ccc(Cc2ccc(OC)c(C3SC4C(=NN(c5ccc(Cl)cc5)C4c4ccc(F)cc4)N3c3ccc(Cl)cc3)c2)cc1C1SC2C(=NN(c3ccc(Cl)cc3)C2c2ccc(F)cc2)N1c1ccc(Cl)cc1 (stereo not given) | 12.5 (≈ 11.2 µM) | 12.5 (≈ 11.2 µM) | 15 | 50 (≈ 44.9 µM) | 25 (≈ 22.5 µM) | 12.5 (≈ 11.2 µM) | 12.5 (≈ 11.2 µM) | 50 (≈ 44.9 µM) | 50 (≈ 44.9 µM) | 50 (≈ 44.9 µM) | 12.5 (≈ 11.2 µM) | 25 (≈ 22.5 µM) | 6.25 (≈ 5.62 µM) | 25 (≈ 22.5 µM) | 12.5 (≈ 11.2 µM) | 18 | 19 | 18 | 22 | 19 | MBC ([1]; IFO 40996, 48 h): 50 µg/mL (≈ 44.9 µM); MIC ([1]; IFO 40996, 48 h): 25 µg/mL (≈ 22.5 µM); MBC (Trichophyton rubrum [2]; IFO 9185, 48 h): 12.5 µg/mL (≈ 11.2 µM); MIC (Trichophyton rubrum [2]; IFO 9185, 48 h): 12.5 µg/mL (≈ 11.2 µM); MBC (Aspergillus fumigatus [3]; HIC 6094, 48 h): 25 µg/mL (≈ 22.5 µM); MIC (Aspergillus fumigatus [3]; HIC 6094, 48 h): 25 µg/mL (≈ 22.5 µM); inhibition zone (IZ) [5]: inactive; inhibition zone (IZ) (Aspergillus fumigatus [7]): inactive; inhibition zone (IZ) (Candida albicans [8]): inactive; zone of inhibition at 300 µg/disc (Bacillus subtilis [20]): 11 mm; LC50 (Caenorhabditis elegans): 380 µg/mL (≈ 341 µM); LC50 [21]: 290 µg/mL (≈ 261 µM)
